Laboratory results: patent US20190119196A1, “COMPOUNDS FOR THE TREATMENT OF […]” (priority 2016, published 2019)
Where a name gives a salt, the structure may show the parent alone. Read-outs that look alike come from different tables or passages of the source.

Experiments:
[1] = test system: L6-myotubes; assay: Measurement of intracellular cAMP levels (alpha screen cAMP kit); format: cell-based; details: agonist final concentration 1×10^−5, 15 min; differentiated cells; 1 mM IBMX
Protocol: (§1) L6-myoblasts were grown in Dulbecco's Modified Eagle's Medium (DMEM) containing 4,5 g/I glucose supplemented with 10% fetal bovine serum, 2 mM L-Glutamine, 50 U/ml penicillin, 50 μg/ml streptomycin and 10 mM HEPES. Cells were plated at 1×10^5 cells per ml in 24-well plates. After reaching 90% confluence the cells were grown in medium containing 2% FBS for 7 days where upon cells differentited into myotubes.
Differentiated cells were serum-starved over night and stimulated with agonist, final concentration 1×10−^5, for 15 min in stimulation buffer (HBSS supplemented with 1% BSA, 5 mM HEPES and 1 mM IBMX, pH 7,4) The medium was then aspirated and to end the reaction 100 μL of 95% EtOH was added to each well of a 24-well plate and cells were kept in −20° C. over night. The EtOH was let to evaporate and 500 μL of lysis buffer (1% BSA, 5 mM HEPES and 0,3% Tween-20, pH 7.4) was added to each well before put in −80° C. for 30 min and then kept in −20° C. Intracellular cAMP levels were detected using an alpha screen cAMP kit (6760635D from Perkin Elmer). The numerical values in the table are given as % increase over the basal level.

[2] = molecular target: T1, human β2-adrenoceptor (Homo sapiens, UniProt P07550); assay: 3H-CGP 12177 whole cell β2 binding
T1 construct: expressed in transfected cells
T1 sequence (P07550 whole entry): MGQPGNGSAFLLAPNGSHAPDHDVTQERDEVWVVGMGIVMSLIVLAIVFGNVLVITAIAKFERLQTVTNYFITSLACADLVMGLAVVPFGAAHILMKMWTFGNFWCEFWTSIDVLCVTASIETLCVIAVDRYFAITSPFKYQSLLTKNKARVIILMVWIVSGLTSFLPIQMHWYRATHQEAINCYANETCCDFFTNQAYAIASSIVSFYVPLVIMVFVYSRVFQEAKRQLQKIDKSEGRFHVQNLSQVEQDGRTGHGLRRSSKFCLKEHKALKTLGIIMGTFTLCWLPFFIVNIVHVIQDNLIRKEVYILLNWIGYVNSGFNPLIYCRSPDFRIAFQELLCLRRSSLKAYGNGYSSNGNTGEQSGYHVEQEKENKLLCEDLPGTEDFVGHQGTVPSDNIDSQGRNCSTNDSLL
Protocol: ^3H-CGP 12177 Whole Cell β2 Binding
Chinese Hamster Ovary (CHO) cells stably expressing the human β2-adrenoceptor were grown in Dulbecco's modified Eagle's medium nutrient mix F12 (DMEM/F12) containing 10% fetal calf serum and 2 mM L-glutamine in a 37° C. humidified 5% CO2:95% air atmosphere. The cells were seeded (100 000 cells/mL) into white-sided, clear-bottomed 96-well isoplates and allowed to grow to confluence for the following day's experiment. Next day, the media was removed from each well of the isoplate. Aliquots of the test compounds (10^−2 M in DMSO) were diluted in DMEM/F12 containing 2 mM L-glutamine (serum-free media) to final concentration ranges of 10^−4 M to 10^−10 M and added to each well. The radioligand ^3H-CGP 12177 was diluted in the same medium (˜1 nM final well concentration) and added to each well. Propranolol and CGP 12177 (10 μM) were used to measure non-specific binding. The cells were incubated for 2 hours at 37° C. After incubation, the cells were washed twice by the addition and removal of 200 μL ice-cold phosphate-buffered saline (PBS). Cells were then lysed with Optiphase Supermix cocktail (100 μL/well) and a clear sealant top was applied to the plate. The plate was left overnight in the dark at room temperature, centrifuged (1000 rpm, 1 min) and measured in a MicroBeta2 Microplate Counter (Perkin Elmer) (10 minutes pre-incubation, 2 min counts/well).
All data points on each binding curve were measured in duplicates. Each 96-well plate also contained four determinations of total and non-specific binding. Non-specific binding was determined in the presence of CGP 12177 and propranolol (10 μM). […] All data points are measured in counts per minute (CPM) and converted into disintegrations per minute (DPM) by dividing the count rate (CPM) with the counting efficiency of the instruments detector (57%). The numerical values were obtained by using the GraphPad Prism 7 programme and are given as -log K (pKi) in the table.

[3] = test system: L6-myotubes; assay: Glucose uptake in differentiated L6-myotubes (3H-2-deoxy-glucose); format: cell-based; details: read-out: Biological example 1: glucose uptake, % increase over the basal level
Protocol: as §1
Differentiated L6-myotubes were serum-starved over night in medium containing 0.5% fatty-acid free BSA and stimulated with agonist, […], glucose free medium or PBS and another portion of agonist was added to glucose free medium. […] Cell lysate was mixed with scintillation buffer (Emulsifier Safe, Perkin Elmer and radioactivity detected in a β-counter (Tri-Carb 2800TR, Perkin Elmer). The numerical values in the table are given as % increase over the basal level.

[4] = CHO cells stably expressing the human β2-adrenoceptor, ~1 nM 3H-CGP 12177, 2 hours at 37° C., read-out: Biological example 3: -log K (pKi), 3H-CGP 12177 whole cell β2 binding (converted)
[5] = agonist final concentration 1×10^−5, differentiated L6-myotubes, 50 nM 3H-2-deoxy-glucose

| Structure (SMILES) | Biological example 2: intracellular cAMP levels, % increase over the basal level [1] [%] | Ki [2] [µM] | activation [3] [%] | Ki [2, 4] [µM] | activation [3, 5] [%] |
| --- | --- | --- | --- | --- | --- |
| CCCC(C)NCC(O)c1cc(Cl)c(N)c(Cl)c1 (mixture of isomers) [Example 28, 1-(4-Amino-3,5-dichlorophenyl)-2-(pentan-2-ylamino)ethan-1-ol trifluoroacetate] | 2 | 0.398 | 39 | – | – |
| CCCCNCC(O)c1cc(O)cc(O)c1 (stereo not shown) [Example 25, 5-(2-(Butylamino)-1-hydroxyethyl)benzene-1,3-diol hemisulphate] | 115 | – | – | 39.8 | 32 |
| CCCCNCC(O)c1ccc(Cl)c(N)c1 (stereo not shown) [Example 34, 1-(3-Amino-4-chlorophenyl)-2-(butylamino)ethan-1-ol] | 0 | – | – | 3.16 | 20 |
| CCCCNCC(O)c1cc(F)c(N)c(F)c1 (stereo not shown) [Example 35, 1-(4-Amino-3,5-difluorophenyl)-2-(butylamino)ethan-1-ol] | 6536 | – | – | 3.98 | 65 |
| CCCCCCCCNCC(O)c1ccc(O)cc1 (stereo not shown) [Example 18, 4-(1-Hydroxy-2-(octylamino)ethyl)phenol acetate] | −23 | – | – | 6.31 | 26 |
| CCCCNCC(O)c1cccc(Cl)c1 (stereo not shown) [Example 2, 2-(Butylamino)-1-(3-chlorophenyl)ethan-1-ol] | 3 | – | – | 6.31 | 27 |
| Oc1ccc(C(O)CNCCC2CCCCC2)cc1 (stereo not shown) [Example 16, 4-(2-((2-Cyclohexylethyl)amino)-1-hydroxyethyl)phenol acetate] | −56 | – | – | 5.01 | 23 |
| OC(CNCC1CCCCC1)c1ccccc1 (stereo not shown) [Example 10, 2-((cyclohexylmethyl)amino)-1-phenylethan-1-ol] | 5 | – | – | 25.1 | 39 |
| CCC(C)NCC(O)c1ccc(O)cc1 (stereo not shown) [Example 5, 4-(2-(sec-Butylamino)-1-hydroxyethyl)phenol] | 18 | – | – | 5.01 | 39 |
| CCCCNCC(O)c1cc(Cl)c(O)c(Cl)c1 (stereo not shown) [Example 26, 4-(2-(Butylamino)-1-hydroxyethyl)-2,6-dichlorophenol] | −0.3 | – | 10 | 25.1 | – |
| Oc1ccc(C(O)CNCCCC(F)(F)F)cc1 (stereo not shown) [Example 24, 4-(1-Hydroxy-2-((4,4,4-trifluorobutyl)amino)ethyl)phenol acetate] | – | – | – | 10 | 22 |
| CCCCNCC(O)c1cccc(O)c1 (stereo not shown) [Example 14, 3-(2-(Butylamino)-1-hydroxyethyl)phenol] | 20 | – | – | 15.8 | 17 |
| CCCCNC(C)C(O)c1ccc(O)cc1 (stereo not shown) [Example 12, 4-(2-(Butylamino)-1-hydroxypropyl)phenol acetate] | 190 | – | – | 7.94 | 40 |
| CCCC(C)NCC(O)c1ccc(Cl)c(O)c1 (mixture of isomers) [Example 33, 2-Chloro-5-(1-hydroxy-2-(pentan-2-ylamino)ethyl)phenol] | 1191 | – | – | 1 | 55 |
| Oc1ccc(C(O)CNC23CC4CC(CC(C4)C2)C3)cc1 (stereo not shown) [Example 9, 4-(2-(adamantan-1-ylamino)-1-hydroxyethyl)phenol hemisulfate] | 4 | – | – | 50.1 | 18 |
| CCCC(C)NCC(O)c1ccc(O)cc1 (stereo not shown) [Example 8, 4-(1-Hydroxy-2-(pentan-2-ylamino)ethyl)phenol acetate] | 15 | – | 12 | 20 | – |
| Oc1ccc(C(O)CNC2CCCC2)cc1 (stereo not shown) [Example 7, 4-(2-(cyclopentylamino)-1-hydroxyethyl)phenol acetate] | 1 | – | – | 5.01 | 23 |
| CCCC(C)NC(C)C(O)c1ccc(O)cc1 (mixture of isomers) [Example 13, 4-(1-Hydroxy-2-(pentan-2-ylamino)propyl)phenol acetate] | −1 | – | – | 15.8 | 42 |
| CCCC(C)NCC(O)c1cc(Cl)c(N)c(C(F)(F)F)c1 (mixture of isomers) [Example 31, 1-(4-amino-3-chloro-5-(trifluoromethyl)phenyl)-2-(pentan-2-ylamino)ethan-1-ol] | 439 | 0.0316 | – | – | 36 |
| Oc1ccc(C(O)CNCCCC2CCCCC2)cc1 (stereo not shown) [Example 21, 4-(2-((3-Cyclohexylpropyl)amino)-1-hydroxyethyl)phenol] | −16 | – | – | 2 | 37 |
| Oc1ccc(C(O)CNCCCC2CC2)cc1 (stereo not shown) [Example 23, 4-(2-((3-Cyclopropylpropyl)amino)-1-hydroxyethyl)phenol acetate] | – | – | – | 7.94 | 28 |
| CCCCNC[C@H](O)c1ccc(O)cc1 [Example 11, (R)-4-(2-(Butylamino)-1-hydroxyethyl)phenol hemisulfate] | 10 | – | – | 39.8 | 50 |
| CCCCCCNCC(O)c1ccc(O)cc1 (stereo not shown) [Example 17, 4-(2-(Hexylamino)-1-hydroxyethyl)phenol acetate] | 70 | – | – | 6.31 | 26 |
| CCCCNCC(O)c1cc(Cl)c(N)c(Cl)c1 (stereo not shown) [Example 29, 1-(4-Amino-3,5-dichlorophenyl)-2-(butylamino)ethan-1-ol trifluoroacetate] | 222 | 0.316 | 48 | – | – |
| CC(C)(C)NCC(O)c1ccc(O)cc1 (stereo not shown) [Example 4, 4-(2-(tert-Butylamino)-1-hydroxyethyl)phenol] | 40 | – | 62 | 1 | – |
| CCCCNCC(O)c1ccc(O)c(Cl)c1 (stereo not shown) [Example 20, 4-(2-(Butylamino)-1-hydroxyethyl)-2-chlorophenol] | −19 | – | – | 3.16 | 12 |
| Oc1ccc(C(O)CNCC2CCCCC2)cc1 (stereo not shown) [Example 6, 4-(2-((Cyclohexylmethyl)amino)-1-hydroxyethyl)phenol] | 3 | – | – | 10 | 23 |
| CCCCNCC(O)c1ccc(O)cc1 (stereo not shown) [Example 1, 4-(2-(Butylamino)-1-hydroxyethyl)phenol] | 1 | – | – | 25.1 | 50 |
| CCCC(C)NCC(O)c1cc(Cl)c(O)c(Cl)c1 (mixture of isomers) [Example 27, 2,6-Dichloro-4-(1-hydroxy-2-(pentan-2-ylamino)ethyl)phenol] | 86 | – | – | 1.26 | 6 |
